Where “and” joins values, the source holds several entries; their conditions need not be identical. Equal values may be shown once. Read-outs that look alike come from different tables or passages of the source.
Legend:
[1] = tested on: Factor VII; test: Factor VII activity assay, in vivo liver delivery of FVII siRNA LNP; set-up: species or system mouse; settings: for FVII inhib %: ~48 h
In short: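 Female CD-1 mice (~25 g) given a single i.v. tail-vein dose of FVII siRNA in LNPs (cationic, stealth, neutral lipids), dosed as mg siRNA/kg. Plasma collected ~48 h post-injection; FVII activity read against a standard curve from pooled vehicle-control plasma.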

[2] = Particle size and PDI by dynamic light scattering (Malvern Zetasizer); type: physicochemical; set-up: Final size: unit not given here; settings: for Final size: LNP formulation, Table 10
In short: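 Nanoparticles diluted in PBS to a count rate of about 200-400 kcts and measured by dynamic light scattering; size given as intensity-weighted average diameter, with polydispersity index from the same measurement.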

[3] = tested on: PLK-1 mRNA in Hep3B tumors; test: Hep3B tumor study, PLK-1 mRNA KD in tumor tissue; type: in vivo, human; settings: for PLK1 inhibition %: Hep3B tumor, mouse, i.v., LNP composition as in the source; for % KD: formulation containing E0011 and S004
Excerpt: Formulated siRNAs are made up of double stranded siRNA sequences specific to a target mRNA sequence, and are in the form of lipid nucleotid particles (LNPs) containing cationic lipids, stealth lipids and neutral lipids, as provided in the Examples below. The siRNA construct for use in targeting the liver is specific to Factor VII. The siRNA construct for use in targeting tumors is specific to PLK1-424, which is published by Judge et al., See, J Clin Invest. 2009 March; 119(3):661-73; doi: 10.1172/JCI37515). • 1. FVII siRNA duplex sequence
Hep3B tumors are established in female nude mice by sc injection of 7×10^6 cells in 100 ul PBS into the left flank. Mice are randomized into treatment groups 10-14 days after seeding as tumors reached an average size of 100 mm^3. siRNA formulated LNP formulations are administered at various dose levels intravenously via the lateral tail vein calculated on a mg siRNAs/kg basis according to individual animal weights (10 ml/kg injection volume). Mice are euthanized by CO2 inhalation at various time points and the tumors are harvested for mRNA quantitation. Lipids with a wide range of pKa (5.3-6.6) are used in the LNP formulations. Tumors are measured in 2 dimensions (width×length) to assess tumor growth using digital calipers. Tumor volume is calculated using the equation [a×b×b/2], where a equals the largest diameter and b equals the smallest diameter.
About 30-50 mg tumor tissue is homogenized in tissue lysis buffer in a Qiagen homogenizer followed by centrifugation to clarify lysates. Total RNA is isolated using RNeasy isolation kit (catalog number 74106) according to the manufacture's protocol. PLK-1 mRNA is analyzed by quantitative PCR and normalized to human GAPDH. Applied Biosystems human PLK-1 gene expression assay Hs00983229_m1 and human GAPDH endogenous control cat number 4326317E are used for mRNA detection.
The pKa in all tables refers to the pKa of the cationic lipid. Where multiple doses are indicated (e.g., 3×5), the first number indicates the number of doses given and the second number indicates the amount per dose in mg siRNA (biologically active agent) per kg mouse. In general the multiple doses are administered at 24 hour intervals, and tissues for mRNA quantitation are harvested 24 hours after the last dose.

[4] = pKa of the lipid by TNS fluorescence; type: physicochemical
In short: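 Lipid dissolved in ethanol (2 mM stock) and measured with TNS across eight buffers of differing pH, in water at standard temperature and pressure. Normalized fluorescence intensity plotted against pH and points joined by a smooth line to derive pKa, precise to about 0.2 units.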

[5] = LNP formulation with PLK1 siRNA, helper, neutral and stealth lipid, molar ratio and N/P as in the table
[6] = lipid/no neutral lipid/CHOL/GM-020 NOF 60/0/36/4, N/P 3
[7] = dose 1 mg/kg siRNA i.v., lipid/DSPC/CHOL/AVANTI 880150P 50/28/18/4, N/P 3.43
[8] = dose 3 mg/kg siRNA i.v., lipid/DSPC/CHOL/AVANTI 880150P 50/28/18/4, N/P 3.43
[9] = dose 3 mg/kg siRNA i.v., lipid/no neutral lipid/CHOL/AVANTI 880150P 50/0/46/4, N/P 3.43
[10] = lipid/DSPC/CHOL/AVANTI 880150P 50/28/18/4, N/P 3.43
[11] = lipid/no neutral lipid/CHOL/AVANTI 880150P 50/0/46/4, N/P 3.43
[12] = lipid/no neutral lipid/CHOL/S006 60/0/37/3, N/P 3
[13] = lipid/no neutral lipid/CHOL/S010 60/0/37/3, N/P 3
[14] = LNP formulation with PLK1 siRNA, helper, neutral and stealth lipid, molar ratio and N/P as in the table, stealth lipid S011, molar ratio 60/38/2, N/P 4
[15] = lipid/no neutral lipid/CHOL/GM-020 NOF 60/0/34/6, N/P 3
[16] = lipid/no neutral lipid/CHOL/GM-020 NOF 60/0/38/2, N/P 3

SMILES	Final size (nm) [2, 5] [nm]	PLK1 inhibition % ([3]; 1 × 1 mg siRNA/kg) [%]	pKa ([4]; pKa)	FVII inhib % [1, 8] [%]	FVII inhib % [1, 9] [%]	Final size (nm) [2, 10]	PDI [2, 10]	Final size (nm) [2, 11]	PDI [2, 11]	other results
CCCCCCCC/C=C\CCCCCCCCOCC(CN1CCCCC1)OCCO[C@H]1CC[C@@]2(C)C(=CC[C@H]3[C@@H]4CC[C@H]([C@H](C)CCCC(C)C)[C@@]4(C)CC[C@@H]32)C1 (stereo partly shown) [E0061]	90.09	23	6.28							FVII inhib % ([1]; dose 1 mg/kg siRNA i.v., lipid/no neutral lipid/CHOL/GM-020 NOF 60/0/36/4, N/P 3): 52.6%; Final size (nm) [2, 6]: 139.4 nm; PDI [2, 6]: 0.073
CCCCC/C=C\C/C=C\CCCCCCCCOCC(CN1CCC(OC)C1)OCCOCCO[C@H]1CC[C@@]2(C)C(=CC[C@H]3[C@@H]4CC[C@H]([C@H](C)CCCC(C)C)[C@@]4(C)CC[C@@H]32)C1 (stereo partly shown) [E0024]			6.62	99.9	99.5	100 nm	0.148	149 nm and 125 nm	0.092 and 0.08	FVII inhib % [1, 7]: 85.3%; FVII inhib % ([1]; dose 1 mg/kg siRNA i.v., lipid/no neutral lipid/CHOL/AVANTI 880150P 50/0/46/4, N/P 3.43): 95.7%; FVII inhib % ([1]; dose 1 mg/kg siRNA i.v., lipid/no neutral lipid/CHOL/S006 60/0/37/3, N/P 3): 83.8%; FVII inhib % ([1]; dose 1 mg/kg siRNA i.v., lipid/no neutral lipid/CHOL/S010 60/0/37/3, N/P 3): 72.2%; Final size (nm) ([2]; LNP formulation with PLK1 siRNA, helper, neutral and stealth lipid, molar ratio and N/P as in the table, stealth lipid S004, molar ratio 60/38/0/2, N/P 3): 120.6 nm; Final size (nm) ([2]; LNP formulation with PLK1 siRNA, helper, neutral and stealth lipid, molar ratio and N/P as in the table, stealth lipid S011, molar ratio 40/48/10/2, N/P 3): 88.46 nm; Final size (nm) [2, 12]: 98.53 nm; PDI [2, 12]: 0.12; Final size (nm) [2, 13]: 96.09 nm; PDI [2, 13]: 0.137; PLK1 inhibition % ([3]; 1 × 10 mg siRNA/kg): 15%; PLK1 inhibition % ([3]; 4 × 5 mg siRNA/kg): 23%
CCCCC/C=C\C/C=C\CCCCCCCCOCC(CN1CCOCC1)OCCOCCO[C@H]1CC[C@@]2(C)C(=CC[C@H]3[C@@H]4CC[C@H]([C@H](C)CCCC(C)C)[C@@]4(C)CC[C@@H]32)C1 (stereo partly shown) [E0011]			5.32	86.5	92.3	111 nm	0.221	108 nm	0.23	Final size ([2]; stealth lipid S018): 113.2; Final size ([2]; stealth lipid S019): 110; Final size ([2]; stealth lipid S020): 74.42; PLK1 inhibition % ([3]; 1 × 5 mg siRNA/kg): 66%; PLK1 inhibition % ([3]; 3 × 10 mg siRNA/kg): 71%; % KD ([3]; Table 9, 1×10 mg/kg siRNA): 70%; % KD ([3]; Table 9, 3×5 mg/kg siRNA): 67%
CCCCC/C=C\C/C=C\CCCCCCCCOCC(CN1CCC(O)C1)OCCOCCO[C@H]1CC[C@@]2(C)C(=CC[C@H]3[C@@H]4CC[C@H]([C@H](C)CCCC(C)C)[C@@]4(C)CC[C@@H]32)C1 (stereo partly shown) [E0045]	103.2	36	4.73	10.4	90.7	100 nm	0.18	103 nm	0.25	
CCCCC/C=C\C/C=C\CCCCCCCCOCC(CN1CCC(CCC)C1)OCCOCCO[C@H]1CC[C@@]2(C)C(=CCC3C2CC[C@@]2(C)C3CC[C@@H]2[C@H](C)CCCC(C)C)C1 (stereo partly shown) [E0025]		27	5.45	63	94.2	97 nm	0.22	73 nm	0.12	Final size (nm) ([2]; LNP formulation with PLK1 siRNA, helper, neutral and stealth lipid, molar ratio and N/P as in the table, stealth lipid S004, molar ratio 45/43/10/2, N/P 4): 118.8 nm; Final size (nm) ([2]; LNP formulation with PLK1 siRNA, helper, neutral and stealth lipid, molar ratio and N/P as in the table, stealth lipid S011, molar ratio 40/48/10/2, N/P 4): 85.63 nm; Final size (nm) [2, 14]: 95.73 nm
CCCCC/C=C\C/C=C\CCCCCCCCOCC(CN1CCCCC1)OCCOCCO[C@H]1CC[C@@]2(C)C(=CCC3C2CC[C@@]2(C)C3CC[C@@H]2[C@H](C)CCCC(C)C)C1 (stereo partly shown) [E0014]	82.21		6.4		97.4	104 nm and 95 nm	0.151 and 0.148	148 nm	0.05	FVII inhib % [1, 7]: 72.1%; FVII inhib % ([1]; dose 1 mg/kg siRNA i.v., lipid/no neutral lipid/CHOL/GM-020 NOF 60/0/34/6, N/P 3): 25%; FVII inhib % ([1]; dose 1 mg/kg siRNA i.v., lipid/no neutral lipid/CHOL/GM-020 NOF 60/0/36/4, N/P 3, 1 mg/kg): 68.5% and 37.6%; FVII inhib % ([1]; dose 1 mg/kg siRNA i.v., lipid/no neutral lipid/CHOL/GM-020 NOF 60/0/38/2, N/P 3): 71.5%; FVII inhib % ([1]; dose 3 mg/kg siRNA i.v., lipid/DSPC/CHOL/AVANTI 880150P 50/28/18/4, N/P 3.43, 3 mg/kg): 98.6% and 95.8%; FVII inhib % ([1]; dose 3 mg/kg siRNA i.v., lipid/no neutral lipid/CHOL/GM-020 NOF 60/0/34/6, N/P 3): 96.6%; FVII inhib % ([1]; dose 3 mg/kg siRNA i.v., lipid/no neutral lipid/CHOL/GM-020 NOF 60/0/36/4, N/P 3): 94%; FVII inhib % ([1]; dose 3 mg/kg siRNA i.v., lipid/no neutral lipid/CHOL/GM-020 NOF 60/0/38/2, N/P 3): 96.2%; in vivo Factor VII inhibition ([1]; formulation containing the cationic lipid, RNAi construct specific to Factor VII, liver): 97.4%; Final size (nm) [2, 15]: 85.8 nm; PDI [2, 15]: 0.106; Final size (nm) [2, 6]: 101.5 nm and 94.6 nm; PDI [2, 6]: 0.182 and 0.092; Final size (nm) [2, 16]: 141 nm; PDI [2, 16]: 0.122; PLK1 inhibition % ([3]; 1 × 10 mg siRNA/kg): 22%; pKa [4]: 6.4
CCCCC/C=C\C/C=C\CCCCCCCCOCC(CN1CCC(C)CC1)OCCOCCO[C@H]1CC[C@@]2(C)C(=CC[C@H]3[C@@H]4CC[C@H]([C@H](C)CCCC(C)C)[C@@]4(C)CC[C@@H]32)C1 (stereo partly shown) [E0008]		38	5.81	73	84.5	85 nm	0.168	84 nm	0.214	Final size (nm) ([2]; LNP formulation with PLK1 siRNA, helper, neutral and stealth lipid, molar ratio and N/P as in the table, stealth lipid S004, molar ratio 60/38/2, N/P 4): 123.1 nm; Final size (nm) [2, 14]: 93.11 nm; PLK1 inhibition % ([3]; 1 × 5 mg siRNA/kg): 85%

Reference: US9301923B2, “Lipids, lipid compositions, and methods of using them” (NOVARTIS AG, priority 2009, dated 2016)
